Test results: ChEMBL document CHEMBL5338754, “Identification of Binding Sites in the Nucleotide-Binding Domain of P-Glycoprotein for a Potent and Nontoxic Modulator, the Amine-Containing Monomeric Flavonoid FM04” (J Med Chem, 2023)

Tests used:
[1] = target: ATP-dependent translocase ABCB1 (Homo sapiens, UniProt P08183, Q1193N); assay: Negative allosteric modulator activity at human P-gp Q1193N mutant expressed in HEK293FT cells assessed as fold change in intracellular doxorubicin accumulation using doxorubicin as substrate at 1 uM incubated for 150 mins by microplate reader assay relative to DMSO; format: cell-based; details: 2.5 h
[2] = target: ATP-dependent translocase ABCB1 (Homo sapiens, UniProt P08183, Q1193C); assay: Activation of P-gp ATPase activity in human P-gp Q1193C mutant expressed in HEK293FT cell microsomes assessed as fold change of ATPase activity at 20 uM incubated for 1 hr in presence of ATP by Glo-luminescence based microplate reader assay relative to DMSO; parameters: species or system Microsome
[3] = target: ATP-dependent translocase ABCB1 (Homo sapiens, UniProt P08183, I1115W); assay: Negative allosteric modulator activity at human P-gp I1115W mutant expressed in HEK293FT cells assessed as increase in intracellular doxorubicin accumulation using doxorubicin as substrate at 1 uM incubated for 150 mins by microplate reader assay (reference value: 98.4 +/- 1.3 %); format: cell-based; details: 2.5 h
[4] = target: ATP-dependent translocase ABCB1 (Homo sapiens, UniProt P08183, I1115A); assay: Negative allosteric modulator activity at human P-gp I1115A mutant expressed in HEK293FT cells assessed as fold change in intracellular doxorubicin accumulation using doxorubicin as substrate at 1 uM incubated for 150 mins by microplate reader assay relative to DMSO; format: cell-based; details: 2.5 h
Chain of ATP-dependent translocase ABCB1 (Homo sapiens, UniProt P08183, I1115A) (P08183 whole entry I1115A): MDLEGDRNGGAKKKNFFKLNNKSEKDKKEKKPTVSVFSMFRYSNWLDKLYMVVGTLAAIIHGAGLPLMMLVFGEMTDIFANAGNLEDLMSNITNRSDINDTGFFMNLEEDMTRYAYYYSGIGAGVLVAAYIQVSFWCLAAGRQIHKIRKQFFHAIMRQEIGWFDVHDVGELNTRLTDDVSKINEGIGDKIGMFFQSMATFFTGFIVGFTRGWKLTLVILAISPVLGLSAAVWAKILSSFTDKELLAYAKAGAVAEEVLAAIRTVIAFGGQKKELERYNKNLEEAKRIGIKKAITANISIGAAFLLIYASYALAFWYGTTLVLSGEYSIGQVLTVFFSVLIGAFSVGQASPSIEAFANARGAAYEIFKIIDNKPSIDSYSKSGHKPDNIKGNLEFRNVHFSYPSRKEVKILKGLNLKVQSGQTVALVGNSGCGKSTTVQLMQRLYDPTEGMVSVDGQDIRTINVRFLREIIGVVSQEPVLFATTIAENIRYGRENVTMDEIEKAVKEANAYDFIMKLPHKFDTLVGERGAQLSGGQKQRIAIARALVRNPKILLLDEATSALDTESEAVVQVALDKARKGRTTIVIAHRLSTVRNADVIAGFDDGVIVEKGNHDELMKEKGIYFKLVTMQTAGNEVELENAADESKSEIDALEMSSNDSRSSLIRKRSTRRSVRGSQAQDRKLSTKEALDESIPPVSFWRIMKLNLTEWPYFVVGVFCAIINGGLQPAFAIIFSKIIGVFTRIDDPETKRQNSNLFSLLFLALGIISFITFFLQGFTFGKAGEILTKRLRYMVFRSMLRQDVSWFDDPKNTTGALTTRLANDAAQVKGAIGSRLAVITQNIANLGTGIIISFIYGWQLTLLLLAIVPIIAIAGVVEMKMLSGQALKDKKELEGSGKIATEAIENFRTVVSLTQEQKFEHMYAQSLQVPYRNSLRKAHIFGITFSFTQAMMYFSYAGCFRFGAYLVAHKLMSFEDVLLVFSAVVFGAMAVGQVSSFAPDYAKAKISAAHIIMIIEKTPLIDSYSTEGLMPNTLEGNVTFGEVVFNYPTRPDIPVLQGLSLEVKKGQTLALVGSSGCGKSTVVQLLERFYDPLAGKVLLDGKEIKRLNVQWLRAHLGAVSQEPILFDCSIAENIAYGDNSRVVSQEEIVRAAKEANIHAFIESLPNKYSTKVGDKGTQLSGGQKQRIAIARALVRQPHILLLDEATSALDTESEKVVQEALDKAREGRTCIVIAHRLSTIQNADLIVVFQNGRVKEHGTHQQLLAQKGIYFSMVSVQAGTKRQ

Chain of ATP-dependent translocase ABCB1 (Homo sapiens, UniProt P08183, I1115W) (P08183 whole entry I1115W): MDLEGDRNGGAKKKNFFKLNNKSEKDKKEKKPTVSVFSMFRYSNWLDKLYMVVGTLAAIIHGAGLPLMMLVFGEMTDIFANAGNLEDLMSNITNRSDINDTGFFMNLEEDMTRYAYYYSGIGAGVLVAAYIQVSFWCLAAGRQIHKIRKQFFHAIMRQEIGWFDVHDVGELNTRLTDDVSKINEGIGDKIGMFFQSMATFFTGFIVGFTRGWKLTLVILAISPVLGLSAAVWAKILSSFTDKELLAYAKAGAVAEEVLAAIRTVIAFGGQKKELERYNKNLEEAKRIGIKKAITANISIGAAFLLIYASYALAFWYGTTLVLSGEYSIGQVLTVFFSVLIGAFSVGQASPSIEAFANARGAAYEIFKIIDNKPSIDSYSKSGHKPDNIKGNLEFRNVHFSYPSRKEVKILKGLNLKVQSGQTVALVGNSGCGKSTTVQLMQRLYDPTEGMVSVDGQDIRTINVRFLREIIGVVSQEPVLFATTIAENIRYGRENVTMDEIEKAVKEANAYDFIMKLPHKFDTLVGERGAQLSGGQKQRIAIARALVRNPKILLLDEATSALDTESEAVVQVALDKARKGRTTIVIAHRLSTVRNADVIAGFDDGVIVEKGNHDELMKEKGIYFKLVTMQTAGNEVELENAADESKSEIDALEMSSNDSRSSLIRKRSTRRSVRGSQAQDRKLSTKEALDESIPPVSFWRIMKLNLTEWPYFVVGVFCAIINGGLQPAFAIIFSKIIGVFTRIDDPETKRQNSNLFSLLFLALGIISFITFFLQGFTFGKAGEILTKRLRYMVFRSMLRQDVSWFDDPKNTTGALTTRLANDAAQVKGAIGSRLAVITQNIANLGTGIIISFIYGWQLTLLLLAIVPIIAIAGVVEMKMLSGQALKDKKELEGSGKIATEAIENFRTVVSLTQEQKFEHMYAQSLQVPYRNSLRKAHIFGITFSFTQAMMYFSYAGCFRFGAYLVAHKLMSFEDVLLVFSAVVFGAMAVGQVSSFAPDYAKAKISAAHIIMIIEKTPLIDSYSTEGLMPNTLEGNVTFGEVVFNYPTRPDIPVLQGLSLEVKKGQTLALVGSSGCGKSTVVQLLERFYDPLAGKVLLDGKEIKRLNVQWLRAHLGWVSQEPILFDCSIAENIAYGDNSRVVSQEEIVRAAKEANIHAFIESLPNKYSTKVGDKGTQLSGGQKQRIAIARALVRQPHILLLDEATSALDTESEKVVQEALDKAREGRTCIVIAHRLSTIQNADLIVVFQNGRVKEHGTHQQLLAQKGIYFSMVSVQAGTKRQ
Chain of ATP-dependent translocase ABCB1 (Homo sapiens, UniProt P08183, Q1193C) (P08183 whole entry Q1193C): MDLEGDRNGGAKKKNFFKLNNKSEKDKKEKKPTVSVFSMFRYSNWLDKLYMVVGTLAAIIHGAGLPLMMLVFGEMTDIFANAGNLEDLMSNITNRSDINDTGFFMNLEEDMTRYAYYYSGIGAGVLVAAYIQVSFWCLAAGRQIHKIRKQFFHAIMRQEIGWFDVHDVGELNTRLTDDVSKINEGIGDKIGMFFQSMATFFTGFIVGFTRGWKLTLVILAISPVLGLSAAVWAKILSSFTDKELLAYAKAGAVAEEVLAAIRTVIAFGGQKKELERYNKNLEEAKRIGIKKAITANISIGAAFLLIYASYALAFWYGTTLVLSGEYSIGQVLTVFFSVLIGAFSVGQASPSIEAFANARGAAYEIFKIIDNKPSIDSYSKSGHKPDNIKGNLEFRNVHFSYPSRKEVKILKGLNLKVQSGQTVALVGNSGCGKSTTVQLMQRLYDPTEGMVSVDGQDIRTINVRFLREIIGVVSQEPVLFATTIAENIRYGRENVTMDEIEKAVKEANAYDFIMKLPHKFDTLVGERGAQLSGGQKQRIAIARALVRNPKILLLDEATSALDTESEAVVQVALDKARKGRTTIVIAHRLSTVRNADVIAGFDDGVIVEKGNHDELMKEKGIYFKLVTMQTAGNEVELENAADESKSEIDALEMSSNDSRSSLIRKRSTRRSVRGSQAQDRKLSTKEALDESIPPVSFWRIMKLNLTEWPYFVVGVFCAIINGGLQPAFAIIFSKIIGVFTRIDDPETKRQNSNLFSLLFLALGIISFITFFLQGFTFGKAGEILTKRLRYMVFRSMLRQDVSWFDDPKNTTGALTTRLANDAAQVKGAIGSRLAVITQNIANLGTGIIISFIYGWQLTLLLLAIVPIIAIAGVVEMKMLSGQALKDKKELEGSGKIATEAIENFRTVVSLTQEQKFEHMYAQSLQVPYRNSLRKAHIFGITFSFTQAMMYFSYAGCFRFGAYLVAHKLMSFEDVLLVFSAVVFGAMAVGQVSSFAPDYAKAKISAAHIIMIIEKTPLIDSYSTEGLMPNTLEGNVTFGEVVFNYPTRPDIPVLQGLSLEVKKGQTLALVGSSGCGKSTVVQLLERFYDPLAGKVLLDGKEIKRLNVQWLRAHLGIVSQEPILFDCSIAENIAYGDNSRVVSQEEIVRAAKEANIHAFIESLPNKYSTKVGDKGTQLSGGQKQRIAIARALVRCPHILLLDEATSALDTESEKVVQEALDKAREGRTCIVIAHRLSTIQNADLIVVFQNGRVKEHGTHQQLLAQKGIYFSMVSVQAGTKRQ
Chain of ATP-dependent translocase ABCB1 (Homo sapiens, UniProt P08183, Q1193N) (P08183 whole entry Q1193N): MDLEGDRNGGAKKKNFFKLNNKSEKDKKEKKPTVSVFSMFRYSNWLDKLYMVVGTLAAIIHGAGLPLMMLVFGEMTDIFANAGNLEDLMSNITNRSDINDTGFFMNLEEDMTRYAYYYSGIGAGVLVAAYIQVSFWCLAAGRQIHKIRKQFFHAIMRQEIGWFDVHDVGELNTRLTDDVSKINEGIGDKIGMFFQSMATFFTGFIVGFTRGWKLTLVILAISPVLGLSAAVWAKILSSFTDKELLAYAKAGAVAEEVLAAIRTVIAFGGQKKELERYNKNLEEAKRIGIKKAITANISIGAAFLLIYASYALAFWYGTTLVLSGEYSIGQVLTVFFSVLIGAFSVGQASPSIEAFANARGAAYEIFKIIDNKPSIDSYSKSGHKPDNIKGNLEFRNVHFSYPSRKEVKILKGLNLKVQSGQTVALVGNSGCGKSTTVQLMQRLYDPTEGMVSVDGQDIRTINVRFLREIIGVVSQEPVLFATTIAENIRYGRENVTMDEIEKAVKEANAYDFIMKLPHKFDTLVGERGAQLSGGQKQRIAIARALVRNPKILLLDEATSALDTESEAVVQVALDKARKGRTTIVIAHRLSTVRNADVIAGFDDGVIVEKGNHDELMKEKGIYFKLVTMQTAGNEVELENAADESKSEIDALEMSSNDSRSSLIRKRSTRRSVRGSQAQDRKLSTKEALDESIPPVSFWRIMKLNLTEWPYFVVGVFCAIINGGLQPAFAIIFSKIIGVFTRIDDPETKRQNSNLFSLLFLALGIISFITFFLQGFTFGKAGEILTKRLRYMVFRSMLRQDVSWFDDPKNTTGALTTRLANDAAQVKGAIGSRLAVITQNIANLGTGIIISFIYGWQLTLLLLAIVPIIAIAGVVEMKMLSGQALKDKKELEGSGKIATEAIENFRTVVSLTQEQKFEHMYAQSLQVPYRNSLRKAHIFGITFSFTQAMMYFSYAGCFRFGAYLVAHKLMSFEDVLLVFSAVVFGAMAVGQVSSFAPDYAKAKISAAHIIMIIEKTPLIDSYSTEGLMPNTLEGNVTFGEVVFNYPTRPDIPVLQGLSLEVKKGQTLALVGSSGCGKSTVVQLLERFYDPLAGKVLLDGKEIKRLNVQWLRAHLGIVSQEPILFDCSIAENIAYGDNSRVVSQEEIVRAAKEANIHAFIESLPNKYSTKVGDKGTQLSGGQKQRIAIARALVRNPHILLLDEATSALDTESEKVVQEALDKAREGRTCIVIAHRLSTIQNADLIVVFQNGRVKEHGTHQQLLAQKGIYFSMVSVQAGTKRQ

With `O=c1cc(-c2ccc(OCCOCCNCc3ccccc3)cc2)oc2ccccc12` the “fold change (FC)” value [1] was 1.5, the “fold change (FC)” value [2] was 1.3 and the Activity [3] was 99%. For the same compound, the “fold change (FC)” value [4] was 1.
